Test results: PubChem BioAssay AID1259408 (Genetic Toxicology Data Bank (GENE-TOX), 2018)
Activity calls are given as the source filed them. No rule for the calls is given here.

Tested on: GENE-TOX genotoxicity assays, various organisms and cells
Experiment: GENE-TOX mutagenicity studies
Details: for call: Assay Type: In vivo carcinogenicity studies
[1] = Species/Cell Type: Drosophila melanogaster, Assay Type: Sex-linked recessive lethal gene mutation, Assay Code: SRL+, Evaluation Type: Evaluation A (Pre-1980)
[2] = Species/Cell Type: Nonhuman, Assay Code: CCG+, Evaluation Type: Evaluation A (Pre-1980)
[3] = Species/Cell Type: Human, Sex: Male, Assay Type: Sperm morphology, Assay Code: SPH+, Evaluation Type: Evaluation A (Pre-1980)
[4] = Species/Cell Type: Salmonella typhimurium (one or more of the five standard strains: TA98, TA100, TA1535, TA1537, and TA1538), Assay Type: Histidine reverse gene mutation, Ames assay, Assay Code: SAL+, Evaluation Type: Evaluation A (Pre-1980)
[5] = Species/Cell Type: Human, Assay Type: Sister-chromatid exchange (SCE) in vitro, Assay Code: SC1T, Evaluation Type: Evaluation B (Post-1980)
[6] = Species/Cell Type: Allium cepa, Assay Type: Chromosome aberrations, Assay Code: ALC+, Evaluation Type: Evaluation A (Pre-1980)
[7] = Species/Cell Type: Salmonella typhimurium (one or more of the five standard strains: TA98, TA100, TA1535, TA1537, and TA1538), Assay Type: Histidine reverse gene mutation, Ames assay, Assay Code: SALT, Evaluation Type: Evaluation A (Pre-1980)
[8] = Species/Cell Type: Bacillus subtilis (H17 vs M45), Assay Type: Rec-assay, spot test, DNA effects (bacterial DNA repair), Assay Code: REWT, Evaluation Type: Evaluation A (Pre-1980)
[9] = Species/Cell Type: Bacillus subtilis (H17 vs M45), Assay Type: Rec-assay, spot test, DNA effects (bacterial DNA repair), Assay Code: REW-, Evaluation Type: Evaluation A (Pre-1980)

For `O=P1(NCCCl)OCCCN1CCCl` (stereo not drawn), which mutagenic call (Species/Cell Type: Drosophila melanogaster, Assay Type: Aneuploidy, partial sex chromosome loss, chromosome aberrations, Assay Code: DAP-M, Evaluation Type: Evaluation A (Pre-1980)) is on record?
Its mutagenic call is “inactive; negative”.

What about the mutagenic call (Species/Cell Type: Drosophila melanogaster, Assay Type: Aneuploidy, whole sex chromosome loss, chromosome aberrations, Assay Code: DAC-M, Evaluation Type: Evaluation A (Pre-1980)) of the same compound?
The mutagenic call was “inactive; negative”.

What about the mutagenic call [1] of the same compound?
The mutagenic call was “active; positive”.

And the mutagenic call (Species/Cell Type: Mammalian polychromatic erythrocytes, Assay Type: Micronucleus test, chromosome aberrations, Assay Code: MNT+, Evaluation Type: Evaluation A (Pre-1980))?
The mutagenic call was “active; positive”.

And the call [2]?
The call was “active; positive”.

What about the mutagenic call (Species/Cell Type: Saccharomyces cerevisiae, Assay Type: Forward and reverse gene mutation, mitotic recombination and gene conversion, DNA effects, body fluid assay, Assay Code: BFC+, Evaluation Type: Evaluation A (Pre-1980)) of the same compound?
The mutagenic call was “active; positive”.

And the mutagenic call (Species/Cell Type: Saccharomyces cerevisiae, Assay Type: Forward and reverse gene mutation, mitotic recombination and gene conversion, host-mediated assay, Assay Code: HMET, Evaluation Type: Evaluation A (Pre-1980))?
Its mutagenic call is “no conclusion”.

And the mutagenic call (Species/Cell Type: Saccharomyces cerevisiae, Assay Type: Mitotic recombination or gene conversion, Assay Code: YEC+*, Activation: With metabolic activation, Evaluation Type: Evaluation A (Pre-1980))?
Its mutagenic call is “active; positive”.

And the mutagenic call (Species/Cell Type: Salmonella typhimurium (one or more of the five standard strains: TA98, TA100, TA1535, TA1537, and TA1538), Assay Type: Histidine reverse gene mutation, Ames assay, Assay Code: SAL+*, Activation: With metabolic activation, Evaluation Type: Evaluation A (Pre-1980))?
Its mutagenic call is “active; positive”.

`CCNC(=O)[C@@H]1CCCN1C(=O)[C@H](CCCN=C(N)N)NC(=O)[C@H](CC(C)C)NC(=O)[C@@H](Cc1c[nH]c2ccccc12)NC(=O)[C@H](Cc1ccc(O)cc1)NC(=O)[C@H](CO)NC(=O)[C@H](Cc1c[nH]c2ccccc12)NC(=O)[C@H](Cc1cnc[nH]1)NC(=O)[C@@H]1CCC(=O)N1` was tested. Which mutagenic call [3] did it give?
The mutagenic call was “active; positive”.

For `COc1ccc(/C=N\NC(=O)COc2ccc(Br)cc2CN2CCCCC2)cc1`, which mutagenic call (Species/Cell Type: Saccharomyces cerevisiae, Assay Type: Reverse gene mutation, Assay Code: YERT, Evaluation Type: Evaluation A (Pre-1980)) is on record?
Its mutagenic call is “no conclusion”.

How did the mutagenic call [4] turn out when `Cn1cncc1[N+](=O)[O-]` was run?
The mutagenic call was “active; positive”.

How did the mutagenic call [4] turn out when `O=[N+]([O-])c1ccc2[nH]ccc2c1` was run?
The mutagenic call was “active; positive”.

Which mutagenic call (Species/Cell Type: Arabidopsis species, Assay Type: Gene mutation, Assay Code: ARM+D, Dose Response: With dose response, Evaluation Type: Evaluation A (Pre-1980)) does the source give for `C=CN(CC)N=O` here?
The mutagenic call was “active; positive”.

With `Cc1cccn2c1nc1ccc(N)nc12` as the compound, how does the mutagenic call (Species/Cell Type: Human, Assay Type: Sister-chromatid exchange (SCE) in vitro, Assay Code: SC1+D*, Activation: With metabolic activation, Dose Response: With dose response, Evaluation Type: Evaluation B (Post-1980)) read?
Its mutagenic call is “active; positive”.

With `OC1c2ccccc2-c2cc3ccccc3cc2C1O` (stereo not drawn) as the compound, how does the mutagenic call (Species/Cell Type: Chinese hamster lung (V79) cells, Assay Type: Forward gene mutation at the HPRT or ouabain locus, Assay Code: V79-*, Activation: With metabolic activation, Evaluation Type: Evaluation A (Pre-1980)) read?
Its mutagenic call is “inactive; negative”.

And the mutagenic call (Species/Cell Type: Chinese hamster lung (V79) cells, Assay Type: Forward gene mutation at the HPRT or ouabain locus, Assay Code: V79-, Evaluation Type: Evaluation A (Pre-1980))?
The mutagenic call was “inactive; negative”.

And the mutagenic call (Species/Cell Type: Drosophila melanogaster, Assay Type: Sex-linked recessive lethal gene mutation, Assay Code: SRLT, Evaluation Type: Evaluation A (Pre-1980))?
Its mutagenic call is “no conclusion”.

What about the mutagenic call (Species/Cell Type: Human diploid fibroblasts, Assay Type: Unscheduled DNA synthesis (UDS) in vitro, DNA effects, Assay Code: UDH-, Evaluation Type: Evaluation A (Pre-1980)) of the same compound?
Its mutagenic call is “inactive; negative”.

What about the mutagenic call (Species/Cell Type: Mouse prostate cells, Assay Type: Cell transformation, Assay Code: CTM-, Evaluation Type: Evaluation A (Pre-1980)) of the same compound?
The mutagenic call was “inactive; negative”.

And the mutagenic call (Species/Cell Type: Syrian hamster embryo (SHE) cells, Assay Type: Cell transformation, clonal assay, Assay Code: CTC+, Evaluation Type: Evaluation A (Pre-1980))?
Its mutagenic call is “active; positive”.

How did the mutagenic call (Species/Cell Type: Escherichia coli WP2 UVRA, Assay Type: Tryptophan reverse gene mutation, Assay Code: WPU-*, Activation: With metabolic activation, Evaluation Type: Evaluation A (Pre-1980)) turn out when `O=S(O)OS(=O)O` was run?
The mutagenic call was “inactive; negative”.

Which call [2] does the source give for `ClCOCCl` here?
The call was “active; positive”.

How did the mutagenic call (Species/Cell Type: Human, Sex: Male, Assay Type: Sperm morphology, Assay Code: SPH-, Evaluation Type: Evaluation A (Pre-1980)) turn out when `NCCCC[C@H](N)C(=O)O` was run?
The mutagenic call was “inactive; negative”.

With `CC(=O)Nc1ccccc1O` as the compound, how does the mutagenic call [5] read?
The mutagenic call was “no conclusion”.

How did the mutagenic call [6] turn out when `COc1ccccc1O` was run?
The mutagenic call was “active; positive”.

What about the mutagenic call (Species/Cell Type: Human lymphocytes, Assay Type: Sister-chromatid exchange (SCE) in vitro, Assay Code: SCL+D, Dose Response: With dose response, Evaluation Type: Evaluation B (Post-1980)) of the same compound?
The mutagenic call was “active; positive”.

What about the mutagenic call (Species/Cell Type: Human, Assay Type: Sister-chromatid exchange (SCE) in vitro, Assay Code: SC1+D, Dose Response: With dose response, Evaluation Type: Evaluation B (Post-1980)) of the same compound?
The mutagenic call was “active; positive”.

And the mutagenic call [7]?
The mutagenic call was “no conclusion”.

How did the mutagenic call (Species/Cell Type: Saccharomyces cerevisiae, Assay Type: Mitotic recombination or gene conversion, Assay Code: YEC+, Evaluation Type: Evaluation A (Pre-1980)) turn out when `C[CH2][Hg][S]c1ccccc1C(=O)O` was run?
Its mutagenic call is “active; positive”.

What does the source list for `CN(C)c1ccc(N=Nc2ccccc2C(=O)O)cc1`?
mutagenic call (Species/Cell Type: Bacillus subtilis (H17 vs M45), Assay Type: Rec-assay, spot test, DNA effects (bacterial DNA repair), Assay Code: REW+, Evaluation Type: Evaluation A (Pre-1980)): active; positive; mutagenic call [7]: no conclusion

For `NC1=NC(=O)NC(=O)C1`, which mutagenic call (Species/Cell Type: Vicia faba, Assay Type: Chromosome aberrations, Assay Code: VIC+, Evaluation Type: Evaluation A (Pre-1980)) is on record?
Its mutagenic call is “active; positive”.

For `COC1=CC(=O)C[C@@H](C)[C@]12Oc1c(Cl)c(OC)cc(OC)c1C2=O`, which mutagenic call [6] is on record?
Its mutagenic call is “active; positive”.

And the mutagenic call (Species/Cell Type: Aspergillus nidulans, Assay Type: Aneuploidy, chromosome aberrations, Assay Code: ASN+, Evaluation Type: Evaluation A (Pre-1980))?
The mutagenic call was “active; positive”.

And the mutagenic call (Species/Cell Type: Aspergillus nidulans, Assay Type: Mitotic recombination, Assay Code: ASGT, Evaluation Type: Evaluation A (Pre-1980))?
The mutagenic call was “no conclusion”.

What about the mutagenic call [8] of the same compound?
Its mutagenic call is “no conclusion”.

And the mutagenic call (Species/Cell Type: Escherichia coli polA (W3119 vs P3478), Assay Type: Rec-assay, DNA effects (bacterial DNA repair), Assay Code: RE1T, Evaluation Type: Evaluation A (Pre-1980))?
Its mutagenic call is “no conclusion”.

And the mutagenic call (Species/Cell Type: Mammalian polychromatic erythrocytes, Assay Type: Micronucleus test, chromosome aberrations, Assay Code: MNTT, Evaluation Type: Evaluation A (Pre-1980))?
The mutagenic call was “no conclusion”.

What about the mutagenic call (Species/Cell Type: Mouse, Sex: Male, Assay Type: Sperm morphology, Assay Code: SPI+, Evaluation Type: Evaluation A (Pre-1980)) of the same compound?
The mutagenic call was “active; positive”.

And the call (Species/Cell Type: Nonhuman, Assay Code: CCG+L, Evaluation Type: Evaluation A (Pre-1980))?
The call was “active; positive”.

What about the mutagenic call (Species/Cell Type: Nonhuman, Assay Type: Sister-chromatid exchange (SCE) in vivo, Assay Code: SC3+D, Dose Response: With dose response, Evaluation Type: Evaluation B (Post-1980)) of the same compound?
Its mutagenic call is “active; positive”.

What about the mutagenic call (Species/Cell Type: Saccharomyces cerevisiae, Assay Type: Mitotic recombination or gene conversion, Assay Code: YEH-, Evaluation Type: Evaluation A (Pre-1980)) of the same compound?
Its mutagenic call is “inactive; negative”.

And the mutagenic call [7]?
The mutagenic call was “no conclusion”.

`O=C1C=C(N2CC2)C(=O)C2=C1CCCC2` was tested. Which mutagenic call [1] did it give?
The mutagenic call was “active; positive”.

Which call (Species/Cell Type: Nonhuman, Assay Code: CCG-, Evaluation Type: Evaluation A (Pre-1980)) does the source give for `Cc1c(N)cccc1N` here?
The call was “inactive; negative”.

Which mutagenic call [5] does the source give for `CC(C)C[C@H](NC(=O)[C@@H](O)[C@H](N)Cc1ccccc1)C(=O)O` here?
Its mutagenic call is “no conclusion”.

How did the mutagenic call [9] turn out when `[Cl][Fe]([Cl])[Cl]` was run?
The mutagenic call was “inactive; negative”.

With `ClCC(Br)CBr` (stereo not drawn) as the compound, how does the mutagenic call (Species/Cell Type: Escherichia coli polA (W3119 vs P3478), Assay Type: Rec-assay, DNA effects (bacterial DNA repair), Assay Code: RE1+, Evaluation Type: Evaluation A (Pre-1980)) read?
Its mutagenic call is “active; positive”.

What about the mutagenic call [3] of the same compound?
Its mutagenic call is “active; positive”.

What about the call [2] of the same compound?
Its call is “active; positive”.

And the mutagenic call (Species/Cell Type: Nonhuman, Assay Type: Sister-chromatid exchange (SCE) in vitro, Assay Code: SC2+D, Dose Response: With dose response, Evaluation Type: Evaluation B (Post-1980))?
The mutagenic call was “active; positive”.

What about the mutagenic call [4] of the same compound?
The mutagenic call was “active; positive”.

What about the mutagenic call (Species/Cell Type: Salmonella typhimurium, Assay Type: Forward and reverse gene mutation, body fluid assay, Assay Code: BFU-, Evaluation Type: Evaluation A (Pre-1980)) of the same compound?
Its mutagenic call is “inactive; negative”.

How did the mutagenic call [4] turn out when `Cc1ncc([N+](=O)[O-])n1C` was run?
The mutagenic call was “active; positive”.

For `NC(=S)Nc1ccccc1`, which call (Species/Cell Type: Nonhuman, Assay Code: CCG-L, Evaluation Type: Evaluation A (Pre-1980)) is on record?
The call was “inactive; negative”.

For `NCl`, which mutagenic call (Species/Cell Type: Mammalian polychromatic erythrocytes, Assay Type: Micronucleus test, chromosome aberrations, Assay Code: MNTT, Evaluation Type: Evaluation B (Post-1980)) is on record?
The mutagenic call was “no conclusion”.

For `NC(Cc1ccc(Oc2ccc(N(CCCl)CCCl)cc2)cc1)C(=O)O` (stereo not drawn), which mutagenic call [1] is on record?
Its mutagenic call is “active; positive”.

Which mutagenic call (Species/Cell Type: Chinese hamster lung (V79) cells, Assay Type: Forward gene mutation at the HPRT or ouabain locus, Assay Code: V79+, Evaluation Type: Evaluation A (Pre-1980)) does the source give for `Cc1c2c(c(CO)c3ccc4ccccc4c13)[C@H](O)[C@@H](O)C=C2` here?
The mutagenic call was “active; positive”.

And the call (Species/Cell Type: Nonhuman, Assay Code: CCGT, Evaluation Type: Evaluation A (Pre-1980))?
The call was “no conclusion”.

How did the mutagenic call [8] turn out when `O=S(=O)(O)c1cc(O)c2c(O)c(N=Nc3ccccc3)c(S(=O)(=O)O)cc2c1` was run?
Its mutagenic call is “no conclusion”.

`CC[C@@]1(O)C[C@H](O[C@H]2C[C@H](NC)[C@H](O)[C@H](C)O2)c2c(cc3c(c2O)C(=O)c2c(O)cccc2C3=O)[C@H]1C(=O)OC` was tested. Which mutagenic call [7] did it give?
Its mutagenic call is “no conclusion”.

With `CN(C)c1ccc(N=Nc2ccc3nc4ccc(N)cc4[n+](-c4ccccc4)c3c2)cc1` as the compound, how does the mutagenic call [9] read?
Its mutagenic call is “inactive; negative”.
